Reference: US9492423B2, “Formulations of histone deacetylase inhibitor in combination with bendamustine and uses thereof” (PHARMACYCLICS LLC, priority 2011, dated 2016)

How the values were obtained:
RAD51 [1] = assay: Jurkat cells, pretreatment and bendamustine-induced RAD51 upregulation; format: cell-based, human; conditions: Jurkat cells pre-treated one day with 0.2 uM Compound 1, then 20 uM bendamustine for 1 day, FIG. 9
Method: Cells were pre-treated one day is advance with 0.2 uM HDAC inhibitor (i.e., Compound 1), then 20 uM bendamustine was added for 1 day.

[2] = Clinical PK of Compound 1 in solution form, single oral dose and 2-hour IV infusion doses; conditions: human, in vivo, humans
Method: In clinical trials involving humans with cancer, Compound 1 in solution form was administered at 2 mg/kg as a single oral dose and as multiple 2-hour IV infusion doses.

[3] = Phase 1 trial of oral capsule Compound 1, HCl: plasma pharmacokinetics; format: in vivo; conditions: human, 30 mg/m^2 dose of capsule formulation of Example 2, solid tumor cancer patients, mean±SE, read-out: AUC0-4h for plasma concentrations
Method: (§1) This is a Phase 1 dose-escalation study of the safety, pharmacokinetics, and pharmacodynamics of Compound 1, HCl administered orally in patients with advanced cancer.
(§2) In the Phase 1 dose escalation study, up to 7 cohorts will receive Compound 1, HCl orally at doses starting at 30 mg/m^2, approximately 4-6 hours apart, up to 90 mg/m^2, 2 or 3 times a day according to 3 different dosing schedules within 28 day cycle (5 days of dosing followed by 2 days of no dosing; 5 days of dosing followed by 9 days of no dosing; 7 days of dosing followed by 7 days of no dosing) until the maximum tolerated dose is reached.
The following pharmacokinetic information was determined for patients that received a […] dose of the capsule formulation of Example 2. Solid tumor cancer patients received a […] dose of the capsule formulation of Example 2. Blood samples that were collected for up to 24 hours post-dosing were analyzed for pharmacokinetic evaluations. Plasma was harvested by centrifugation and stored at approximately −70° C. until analysis. Concentrations of Compound 1 were determined in plasma using HPLC gradient system (Hewlett Packard model 1100) was configured with Sciex API 3000 and a reversed phase column (Phenomenex, Luna C18, 3.0 μm, 50×2 mm i.d.). The mobile phase gradient consisted of 0.2% formic acid in water (A) and 0.2% formic acid in methanol (B). […]

RAD51 [4] = assay: Western blot of DNA repair proteins in multiple myeloma cell lines; format: cell-based; conditions: FIG. 6A
Text: RAD51 represents an essential component of homologous recombination (HR), one of the two major DNA double-strand break (DSB) repair pathways in cells; the second pathway, non-homologous end joining (NHEJ), represented here by two of its components Ku-70 and DNA-PKcs, is not affected by these treatments. […] As explained supra, the synergistic anti-multiple myeloma activity of the bendamustine-Compound 1 combination could be due to a reduction in RAD51 levels caused by the HDAC inhibitor (i.e., Compound 1).

H929 (Multiple Myeloma) = assay: Tumor growth inhibition study, H929 bearing female SCID mice; format: in vivo; conditions: PCI-24781 12 mg/kg BID IP 5 d/wk; bendamustine 5.0 mg/kg qd IP 2 d/wk; FIG. 7
Method: Mice inoculated subcutaneously in the right hind flank with H929 MM cells at a density of 1×10^7 cells in a volume of 100 μL/mouse 4 groups of animals (n=8/group) received vehicle (BID, IP, 5 d/wk), PCI-24781 alone (12 mg/kg BID, IP, 5 d/wk), bendamustine alone 5.0 mg/kg (qd, IP, 2 d/wk Tu, Th) or the combination. Body weights and tumor measurements were collected a minimum of 2 times each week for all animals. Blood and tumor samples were collected at study termination for pharmacodynamic evaluations.

[5] = Phase 1 trial of oral capsule Compound 1, HCl: safety, tolerability, pharmacodynamics; format: in vivo
Text: as §1
This study seeks to determine the highest dose of Compound 1, HCl that can be taken without causing serious side effects in patients with advanced cancer. The study will look at safety of the study drug (Compound 1, HCl) and whether the treatment schedule is tolerated by patients.
as §2
Patients should satisfy the following criteria: At least 18 years of age; histologically confirmed, measurable solid tumor, non-Hodgkin's lymphoma, Hodgkin's disease, chronic lymphocytic leukemia, or multiple myeloma that has relapsed after standard therapy or for which no standard therapy exists; ability to swallow oral capsules without difficulty; estimated life expectancy>12 weeks; ECOG performance status≦2; Creatinine≦1.5×institutional upper limit of normal (ULN); Total bilirubin≦1.5×institutional ULN (unless elevated from documented Gilbert's syndrome); AST and ALT≦2.5×institutional ULN (≦5×institutional ULN in the presence of liver metastases); Platelet count≧100,000/μL; ANC≧1500/μL; Hgb≧9.0 g/dL; Patients with previously treated, stable, asymptomatic brain metastases who are not on corticosteroids are eligible; Willing and able to sign a written informed consent.

[6] = tested on: Neuroblastoma cell lines and patient-derived primary neuroblastoma cultures; assay: Neuroblastoma cell viability, calcein AM assay; format: cell-based; conditions: 48 hours, viability by calcein AM
Method: Neuroblastoma cell lines and patient-derived primary neuroblastoma cultures were treated with bortezomib, Compound 1 alone or a combination of both agents for 48 hours. Cells were also treated with HDAC inhibitors vorinostat, sodium butyrate, and valproic acid and viability was assessed by calcein AM assays. mRNA from treated cells was evaluated at 6 and 24 hours using U133+ mRNA expression arrays and Ingenuity analysis. Dichlorofluorescein (DCF) was used to measure reactive oxygen species (ROS). Cell viability assays were repeated in the presence of N-acetylcysteine (NAC). Western blot evaluated caspase-3 and PARP cleavage. Nude mice were injected with 10^7 SMS-KCNR cells subcutaneously and treated with daily doses of 0.5 mg/kg bortezomib, 12.5 mg/kg Compound 1, or a combination of the two agents. Tumors were measured and imaged twice per week.

[7] = tested on: Jurkat (leukemia) and HCT-116 (colon tumor); assay: In vitro dose scheduling studies, apoptosis by FACS (annexinV-FITC/PI); format: cell-based, human
Method: Pharmacokinetic data (pk) data from human patients was used to model various dose regimens using human cell lines: Jurkat (leukemia) and HCT-116 (colon tumor). The human cell lines were treated with or without a HDAC inhibitor (e.g. Compound 1). Cells were cultured, treated according to different regimens and concentrations to model the corresponding dosing regimen (continuous low dose: 0.2 μM; intravenous (IV): 2 μM 3 hours+0.3 μM 4 hours; oral BID: 0.4 μM 4 hours×2, 4 hours apart; oral consecutive BID: 0.4 μM 8 hours; oral consecutive TID: 0.266 μM 12 hours), then washed out to mimic the human in vivo PK.
Cell viability was examined by an analysis of apoptosis using fluorescence activated cell sorting (FACS) after staining with annexinV-FITC and propidium iodide (PI). In brief, after treatment, 1×10^6 cells were washed with phosphate buffered saline (PBS) and then labeled with annexinV-FITC/PI in the binding buffer according to manufacturer's protocol. Fluorescent signals of FITC and PI were detected at 518 nm and 620 nm, respectively, on a Beckman Coulter FACS instrument (Fullerton, Calif.). The data were analyzed with Flow Jo software (Tree Star, Ashland, Oreg.).

CN(C)Cc1c(C(=O)NCCOc2ccc(C(=O)NO)cc2)oc2ccccc12 [Compound 1, N-hydroxy-4-{2-[3-(N,N-dimethylaminomethyl)benzofuran-2-ylcarbonylamino]ethoxy}-benzamide]
bendamustine-induced RAD51 upregulation (RAD51 [1]): suppressed bendamustine-induced RAD51 upregulation | bioavailability ([2]; 2 mg/kg, administered as immediate release capsules or an oral solution): ~27% | bioavailability ([2]; 2 mg/kg solution, from oral and IV AUC0-∞): ~27% | AUC(0-t) [3]: 0.272 ± 0.051 µM·h | NHEJ components Ku-70 and DNA-PKcs (RAD51 [4]): not affected | RAD51 expression (RAD51 [4]): downregulation of RAD51 | tumor growth inhibition (H929 (Multiple Myeloma)): 73% | average grade of thrombocytopenia, TID versus BID consecutive dosing ([5]; daily exposure range of 0.63 to 2.15 μM·h): higher average grade of thrombocytopenia | therapeutic effect ([5]; immediate release capsule, 2 or 3 consecutive doses 4 to 6 hours apart on days of dosing): therapeutic effect of Compound 1 was achieved | incidence of Grade 4 thrombocytopenia (platelet count <25,000 per mm^2) ([5]; solid tumor and lymphoma patients, cycles of 7 days oral dosing followed by 7 days without dosing): limited incidence of Grade 4 thrombocytopenia | IC50 [6]: < 200 nM | efficacy of modelled oral tid dosing versus bid dosing ([7]; 0.266 μM 12 hours versus 0.4 μM 8 hours): better | efficacy of modelled oral bid dosing given consecutively (4 hours apart) versus with a break in between ([7]; 0.4 μM 8 hours versus 0.4 μM 4 hours×2): more efficacious | efficacy (tumor cell death) of modelled dose schedule ([7]; continuous exposure for at least 8 hours): good efficacy

Cn1c(CCCC(=O)O)nc2cc(N(CCCl)CCCl)ccc21 [bendamustine]
tumor growth inhibition (H929 (Multiple Myeloma)): 79%

CC(C)C[C@H](NC(=O)[C@H](Cc1ccccc1)NC(=O)c1cnccn1)B(O)O [bortezomib, reference compound]
IC50 [6]: < 50 nM
